Test results as given in patent US20150037255A1, “PHTHALOCYANINE DYE-CONTAINING CONTRAST AGENT FOR PHOTOACOUSTIC IMAGING” (CANON KABUSHIKI KAISHA, priority 2013, published 2015).

Test: Hydrophobicity evaluation of hydrophobic metal phthalocyanine dye by TLC (Rf value)
Type: physicochemical
Conditions: TLC glass plate RP-18, methanol containing 1% by weight lithium chloride; value of the dye used
Method: To compare the hydrophobicities of hydrophobic metal phthalocyanine dyes, evaluation was carried out using a thin-layer liquid chromatography (hereinafter sometimes abbreviated as TLC) method.
A TLC glass plate, RP-18 (from Merck & Co., Inc.), was used as a development plate, and a methanol solution containing 1% by weight of lithium chloride was used as a development solvent.
According to an established method, a dye solution was spotted on the starting line and the relative migration distance (hereinafter sometimes abbreviated as Rf value) was calculated based on the following equation. Rf value=the distance from the starting line to the center of the spot of the component/the distance from the starting line to the top of the solvent

Rf Value | Substance
0.08 | Cobalt 2,9,16,23-tetra-tert-butyl-29H,31H-phthalocyanine
0.06 | Copper (II) 2,9,16,23-tetra-tert-butyl-29H,31H-phthalocyanine
0.10 | Zinc 2,9,16,23-tetra-tert-butyl-29H,31H-phthalocyanine
0.12 | tert-butyl silicon-[bis trimethylsiloxy]-phthalocyanine
